Measured values from PubChem BioAssay AID248 (DTP/NCI, 2004).
Values joined by “and” are separate entries in the source; they are usually repeats but may differ in a detail not shown here. Equal entries are not always repeated. Inconclusive results and toxic doses are left out. No stated cut-off is given here; in the data, active means T/C of 150% or more; inactive means T/C below 125%.

Test system: L1210 leukemia ip in BDF1 mice, survival T/C
Experiment: NCI In Vivo Anticancer Drug Screen. Data for tumor model L1210 Leukemia (intraperitoneal) in B6D2F1 (BDF1) mice
Details: endpoint: mean survival time, higher = longer survival
Outline: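 Read-out is survival time, reported as the treated-group measurement over the vehicle-control measurement.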

[1] = dose: 100.0 mg/kg/injection, schedule: Q01DX001 (ip), vehicle: carboxymethylcellulose (CMC)
[2] = dose: 100.0 mg/kg/injection, schedule: Q01DX001 (ip), vehicle: saline
[3] = dose: 200.0 mg/kg/injection, schedule: Q01DX001 (ip), vehicle: saline
[4] = dose: 400.0 mg/kg/injection, schedule: Q01DX001 (ip), vehicle: saline
[5] = dose: 100.0 mg/kg/injection, schedule: Q01DX009 (ip), vehicle: saline with Tween-80
[6] = dose: 200.0 mg/kg/injection, schedule: Q01DX009 (ip), vehicle: saline with Tween-80
[7] = dose: 400.0 mg/kg/injection, schedule: Q01DX009 (ip), vehicle: saline with Tween-80
[8] = dose: 100.0 mg/kg/injection, schedule: Q01DX009 (ip), vehicle: Klucel (hydroxypropylcellulose) (HPC)
[9] = dose: 100.0 mg/kg/injection, schedule: Q04DX003 (ip), vehicle: Klucel (hydroxypropylcellulose) (HPC)
[10] = dose: 200.0 mg/kg/injection, schedule: Q01DX009 (ip), vehicle: Klucel (hydroxypropylcellulose) (HPC)
[11] = dose: 200.0 mg/kg/injection, schedule: Q04DX003 (ip), vehicle: Klucel (hydroxypropylcellulose) (HPC)
[12] = dose: 400.0 mg/kg/injection, schedule: Q01DX009 (ip), vehicle: Klucel (hydroxypropylcellulose) (HPC)
[13] = dose: 400.0 mg/kg/injection, schedule: Q04DX003 (ip), vehicle: Klucel (hydroxypropylcellulose) (HPC)

Measured: T/C

BrC(Br)(Br)c1ccc2ccccc2n1
inactive: dose: 50.0 mg/kg/injection, schedule: Q01DX001 (ip), vehicle: other 109 % of control | dose: 100.0 mg/kg/injection, schedule: Q01DX001 (ip), vehicle: other 103 % of control | dose: 100.0 mg/kg/injection, schedule: Q04DX003 (ip), vehicle: saline with Tween-80 93 % of control | dose: 200.0 mg/kg/injection, schedule: Q01DX001 (ip), vehicle: other 101 % of control | dose: 200.0 mg/kg/injection, schedule: Q04DX003 (ip), vehicle: saline with Tween-80 93 % of control | dose: 400.0 mg/kg/injection, schedule: Q01DX001 (ip), vehicle: other 97 % of control | dose: 400.0 mg/kg/injection, schedule: Q04DX003 (ip), vehicle: saline with Tween-80 95 % of control

CN(C)c1ccc(/C=N/Nc2nnc(N/N=C/c3ccc(N(C)C)cc3)c3ccccc23)cc1
inactive: dose: 50.0 mg/kg/injection, schedule: Q01DX001 (ip), vehicle: carboxymethylcellulose (CMC) 98 % of control and 91 % of control | [1] 86 % of control | dose: 200.0 mg/kg/injection, schedule: Q01DX001 (ip), vehicle: carboxymethylcellulose (CMC) 93 % of control and 91 % of control | dose: 400.0 mg/kg/injection, schedule: Q01DX001 (ip), vehicle: carboxymethylcellulose (CMC) 100 % of control and 104 % of control

Cc1cc(SCc2ccccc2)cc(C)[o+]1
inactive: [2] 98 % of control | [3] 98 % of control | [4] 107 % of control

S=P(c1ccccc1)(c1ccccc1)P(=S)(c1ccccc1)c1ccccc1
inactive: dose: 100.0 mg/kg/injection, schedule: Q04DX002 (ip), vehicle: Klucel (hydroxypropylcellulose) (HPC) 100 % of control | dose: 200.0 mg/kg/injection, schedule: Q04DX002 (ip), vehicle: Klucel (hydroxypropylcellulose) (HPC) 92 % of control | dose: 400.0 mg/kg/injection, schedule: Q04DX002 (ip), vehicle: Klucel (hydroxypropylcellulose) (HPC) 92 % of control

COc1cc(C(=O)OC2=CC(=O)c3nc(OC(=O)c4cc(OC)c(OC)c(OC)c4)ccc3C2=O)cc(OC)c1OC
inactive: [2] 93 % of control | [3] 91 % of control | [4] 95 % of control

CCCCC(OC(=O)c1ccc([N+](=O)[O-])cc1)C(C)[N+](=O)[O-] (centres undefined)
inactive: [5] 94 % of control | [6] 97 % of control | [7] 92 % of control

Nc1ccc(C(=O)Oc2ccc([N+](=O)[O-])cc2)c(O)c1
inactive: [8] 95 % of control | [9] 100 % of control | [10] 97 % of control | [11] 88 % of control | [12] 87 % of control | [13] 96 % of control

CCCNC(=S)NNC(=O)c1ccncc1
inactive: dose: 100.0 mg/kg/injection, schedule: Q04DX002 (ip), vehicle: saline with Tween-80 100 % of control | dose: 200.0 mg/kg/injection, schedule: Q04DX002 (ip), vehicle: saline with Tween-80 118 % of control

Cc1ccc(S(=O)(=O)N(CC(=O)c2ccccc2)c2ccc(Br)cc2)cc1
inactive: [2] 89 % of control | [3] 86 % of control | [4] 86 % of control

CCCOc1ccc(C=Nc2ccc(C)cc2)cc1
inactive: [8] 98 % of control | [9] 109 % of control | [10] 116 % of control | [11] 101 % of control | [13] 117 % of control

Cc1nc2nc(=S)[nH]c(N)c2nc1C
inactive: dose: 16.0 mg/kg/injection, schedule: Q01DX Z (ip), vehicle: methylcellulose (MC) 86 % of control | dose: 31.0 mg/kg/injection, schedule: Q01DX Z (ip), vehicle: methylcellulose (MC) 91 % of control | dose: 62.0 mg/kg/injection, schedule: Q01DX Z (ip), vehicle: methylcellulose (MC) 88 % of control | dose: 125.0 mg/kg/injection, schedule: Q01DX Z (ip), vehicle: methylcellulose (MC) 95 % of control

O=[N+]([O-])c1cc(O)cc(F)c1
inactive: [1] 100 % of control

CCN(CCCl)CCCNCc1c2ccccc2c(C)c2ccccc12
inactive: dose: 5.0 mg/kg/injection, schedule: Q01DX005 (ip), vehicle: saline 116 % of control

NC(=O)c1nc2ccccc2nc1C(N)=O
inactive: [8] 92 % of control | [9] 92 % of control | [10] 92 % of control | [11] 92 % of control | [12] 96 % of control | [13] 90 % of control

CC1=C(Br)C(=O)C(c2c(C)c(Br)c(C)c([N+](=O)[O-])c2C)=C(Br)C1=O
inactive: dose: 100.0 mg/kg/injection, schedule: Q01DX001 (ip), vehicle: Klucel (hydroxypropylcellulose) (HPC) 98 % of control | [9] 102 % of control | dose: 200.0 mg/kg/injection, schedule: Q01DX001 (ip), vehicle: Klucel (hydroxypropylcellulose) (HPC) 93 % of control | [11] 102 % of control | dose: 400.0 mg/kg/injection, schedule: Q01DX001 (ip), vehicle: Klucel (hydroxypropylcellulose) (HPC) 106 % of control | [13] 91 % of control

NC(=O)NC(=O)COc1ccc(Cl)cc1Cl
inactive: dose: 100.0 mg/kg/injection, schedule: Q04DX002 (ip), vehicle: saline + alcohol 96 % of control | dose: 200.0 mg/kg/injection, schedule: Q04DX002 (ip), vehicle: saline + alcohol 103 % of control

Cc1cccc2c1/C(=N\Nc1ccc([N+](=O)[O-])cc1[N+](=O)[O-])CC(C)(C)C2
inactive: [5] 104 % of control | [6] 100 % of control | [7] 100 % of control

c1ccc(NC2=NCCN2)nc1
inactive: dose: 75.0 mg/kg/injection, schedule: Q01DX001 (ip), vehicle: saline 93 % of control

c1cc(OCCN2CC2)ccn1
inactive: dose: 12.5 mg/kg/injection, schedule: Q01DX001 (ip), vehicle: carboxymethylcellulose (CMC) 98 % of control | dose: 25.0 mg/kg/injection, schedule: Q01DX001 (ip), vehicle: carboxymethylcellulose (CMC) 108 % of control

O=c1[nH]cnc2ccnn12
inactive: dose: 50.0 mg/kg/injection, schedule: Q01DX009 (ip), vehicle: saline 104 % of control | dose: 100.0 mg/kg/injection, schedule: Q01DX009 (ip), vehicle: saline 107 % of control | dose: 100.0 mg/kg/injection, schedule: Q04DX003 (ip), vehicle: saline 97 % of control | dose: 200.0 mg/kg/injection, schedule: Q04DX003 (ip), vehicle: saline 92 % of control

COC(=O)C1CNN=C1C(=O)N1Cc2cc3ccccc3nc2C1 (centres undefined)
inactive: dose: 10.0 mg/kg/injection, schedule: Q04DX003 (ip), vehicle: saline 94 % of control | dose: 20.0 mg/kg/injection, schedule: Q04DX003 (ip), vehicle: saline 97 % of control | dose: 40.0 mg/kg/injection, schedule: Q04DX003 (ip), vehicle: saline 91 % of control | dose: 80.0 mg/kg/injection, schedule: Q04DX003 (ip), vehicle: saline 97 % of control | dose: 160.0 mg/kg/injection, schedule: Q04DX003 (ip), vehicle: saline 99 % of control
